Assay results as given in patent US20260132132A1, “3A,4,5,6-TETRAHYDRO-1 H-PYRAZOLO[3,4-C]PYRIDIN-7(7AH)-ONE DERIVATIVES AS FACTOR XIIA INHIBITORS” (KALVISTA PHARMACEUTICALS LIMITED, priority 2022, published 2026).

Assays:
[1] = target: FXa (Homo sapiens, UniProt P00742); test: Related protease inhibition: FXa, fluorogenic substrate; format: biochemical; conditions: fluorogenic substrate at Km, 25° C., H1-H3 = % activity at 40 μM; for activity at 40 µM: read-out: IC50 (human FXa) nM
Procedure: (§1) Human serine protease enzyme Plasma Kallikrein, KLK1, FXa, Plasmin, Thrombin and Trypsin were assayed for enzymatic activity using an appropriate fluorogenic substrate at Km concentration, FXIa at fixed substrate concentration of 100 μM and various concentrations of the test compound.

[2] = target: T1, Human Factor XIIa (hFXIIa) (Homo sapiens, UniProt P00748); test: Determination of Human Factor XIIa (hFXIIa) inhibition, fluorogenic substrate IC50 assay; format: biochemical; conditions: fluorogenic substrate H-DPro-Phe-Arg-AFC at Km, 25° C., read-out: Human FXIIa IC50
T1 construct: purchased Enzyme Research Laboratories
T1 sequence (P00748 373-615 limits assumed): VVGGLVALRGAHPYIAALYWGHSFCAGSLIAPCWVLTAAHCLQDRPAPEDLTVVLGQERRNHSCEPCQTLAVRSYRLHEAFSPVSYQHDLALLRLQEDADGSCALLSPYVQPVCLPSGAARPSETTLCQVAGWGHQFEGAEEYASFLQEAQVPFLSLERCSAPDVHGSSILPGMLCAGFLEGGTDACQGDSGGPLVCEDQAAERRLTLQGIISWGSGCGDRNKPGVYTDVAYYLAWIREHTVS
T1 sequence (P00748 20-372 partner limits assumed): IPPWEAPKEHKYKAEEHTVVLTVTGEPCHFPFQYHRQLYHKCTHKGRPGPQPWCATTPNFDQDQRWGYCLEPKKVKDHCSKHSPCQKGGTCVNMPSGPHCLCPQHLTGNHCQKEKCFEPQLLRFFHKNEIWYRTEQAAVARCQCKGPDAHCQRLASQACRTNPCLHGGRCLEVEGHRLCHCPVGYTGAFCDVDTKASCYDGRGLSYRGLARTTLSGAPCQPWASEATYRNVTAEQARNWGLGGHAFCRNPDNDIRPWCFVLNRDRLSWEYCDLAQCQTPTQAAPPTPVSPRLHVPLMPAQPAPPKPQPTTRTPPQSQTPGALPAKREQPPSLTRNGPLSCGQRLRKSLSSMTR
Procedure: Determination of Human Factor XIIa (hFXIIa) inhibition
The Km for the cleavage of the substrate by hFXIIa was determined by standard transformation of the Michaelis-Menten equation, with subsequent inhibition assays performed at substrate Km concentration.

[3] = Pharmacokinetics following a single intravenous dose and a single oral dose in rats; format: in vivo; conditions: rat, male Sprague-Dawley rats, single iv dose (nominal 1 mg/kg) and single oral dose (nominal 5 mg/kg) in 10% DMSO/10% Cremophor EL/80% SWFI, plasma by LCMS, Phoenix WinNonlin; for bioavailability: read-out: F % (oral bioavailability); for half-life: route for T½ not stated
Procedure: Pharmacokinetic studies of the compounds in Table 10 were performed to assess the pharmacokinetics following a single intravenous dose and a single oral dose in male Sprague-Dawley rats. Two rats were given a single intravenous dose of 1 ml/kg of a nominal 1 mg/ml (1 mg/kg) composition of test compound in 10% DMSO/10% Cremophor EL/80% SWFI vehicle. Two rats were given a single oral dose of 5 mL/kg of a nominal 1 mg/ml (5 mg/kg) composition of test compound in 10% DMSO/10% Cremophor EL/80% SWFI vehicle.
Following intravenous dosing, blood samples were collected over a period of 12 h. Sample times were 2, 5, 15 and 30 min then 1, 2, 4, 6, and 12 h. Following oral dosing, blood samples were collected over a period of 24 h. Sample times were 5, 15 and 30 min then 1, 2, 4, 6, 8, 12 and 24 h.
Following collection, blood samples were centrifuged and the plasma fraction analysed for concentration of test compound by LCMS. Oral bioavailability and half-life calculations from these studies were obtained using Phoenix WinNonlin (v8.0) and are shown below: […]

[4] = target: Thrombin (Homo sapiens, UniProt P00734); test: Related protease inhibition: Thrombin, fluorogenic substrate; format: biochemical; conditions: fluorogenic substrate at Km, 25° C., H1-H3 = % activity at 40 μM; for activity at 40 µM: read-out: IC50 (human thrombin) nM
Procedure: as §1

Chain of FXa (P00742 235-488 limits assumed): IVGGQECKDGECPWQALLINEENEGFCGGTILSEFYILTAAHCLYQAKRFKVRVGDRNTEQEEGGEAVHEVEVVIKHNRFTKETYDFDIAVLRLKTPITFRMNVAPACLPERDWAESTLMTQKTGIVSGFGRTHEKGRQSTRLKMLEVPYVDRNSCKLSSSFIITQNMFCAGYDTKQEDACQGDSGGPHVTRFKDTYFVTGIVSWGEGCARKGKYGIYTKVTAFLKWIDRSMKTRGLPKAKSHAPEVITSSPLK
Chain of FXa (P00742 41-179 partner limits assumed): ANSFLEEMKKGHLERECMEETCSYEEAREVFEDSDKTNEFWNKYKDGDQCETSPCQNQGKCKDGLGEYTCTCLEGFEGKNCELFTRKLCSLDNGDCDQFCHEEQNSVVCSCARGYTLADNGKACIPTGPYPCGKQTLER

IC50 [1] [nM] | IC50 [2] [nM] | bioavailability [3] [%] | half-life [3] [h] | activity at 40 µM [4] [%] | activity at 40 µM [1] [%] | IC50 [4] [nM] | Structure (SMILES)
10000 to 40000 | 10 to 100 | 22 | 1.17 | – | – | – | Cc1cc(CNC(=O)c2nn(-c3cccc(Cl)c3)c3c2CCN(c2cc4c(cn2)CCN(CCO)C4)C3=O)nn1C [Example 1220, 1-(3-chlorophenyl)-N-((1,5-dimethyl-1H-pyrazol-3-yl)methyl)-6-(6-(2-hydroxyethyl)-5,6,7,8-tetrahydro-2,6-naphthyridin-3-yl)-7-oxo-4,5,6,7-tetrahydro-1H-pyrazolo[3,4-c]pyridine-3-carboxamide]
– | 10 to 100 | 5 | 0.583 | – | – | – | Cc1cc(CNC(=O)c2nn(-c3cccc(Cl)c3)c3c2CCN(c2ccc4c(c2)C(=O)N(CCO)CC4)C3=O)nn1C [Example 1222, 1-(3-chlorophenyl)-N-((1,5-dimethyl-1H-pyrazol-3-yl)methyl)-6-(2-(2-hydroxyethyl)-1-oxo-1,2,3,4-tetrahydroisoquinolin-7-yl)-7-oxo-4,5,6,7-tetrahydro-1H-pyrazolo[3,4-c]pyridine-3-carboxamide]
10000 to 40000 | 10 to 100 | 27 | 4.55 | – | – | – | Cc1cc(C)c(CNC(=O)c2nn(-c3cccc(Cl)c3)c3c2CCN(c2ccc4c(c2)CN(CCO)CC4)C3=O)cn1 [Example 1128, 1-(3-Chlorophenyl)-N-((4,6-dimethylpyridin-3-yl)methyl)-6-(2-(2-hydroxyethyl)-1,2,3,4-tetrahydroisoquinolin-7-yl)-7-oxo-4,5,6,7-tetrahydro-1H-pyrazolo[3,4-c]pyridine-3-carboxamide]
> 40000 | 300 to 1000 | 56 | 2.22 | – | – | – | CN1CCc2ccc(N3CCc4c(C(=O)NCC5CC5)nn(-c5cccc(Cl)c5)c4C3=O)cc2C1=O [Example 1149, 1-(3-chlorophenyl)-N-(cyclopropylmethyl)-6-(2-methyl-1-oxo-1,2,3,4-tetrahydroisoquinolin-7-yl)-7-oxo-4,5,6,7-tetrahydro-1H-pyrazolo[3,4-c]pyridine-3-carboxamide]
– | 100 to 300 | – | – | 20 to 80 | > 80 | – | CN1CCc2ccc(N3CCc4c(C(=O)N[C@H](CO)C5CC5)nn(-c5cccc(Cl)c5)c4C3=O)cc2C1=O [Example 1406, (S)-1-(3-chlorophenyl)-N-(1-cyclopropyl-2-hydroxyethyl)-6-(2-methyl-1-oxo-1,2,3,4-tetrahydroisoquinolin-7-yl)-7-oxo-4,5,6,7-tetrahydro-1H-pyrazolo[3,4-c]pyridine-3-carboxamide]
– | 10 to 100 | – | – | 20 to 80 | 20 to 80 | – | COCc1nn(-c2cc(Cl)cc(CN)c2)c2c1CCN(c1ccc3c(c1)C(=O)N(C)CC3)C2=O [Example 2041, 7-(1-(3-(aminomethyl)-5-chlorophenyl)-3-(methoxymethyl)-7-oxo-1,4,5,7-tetrahydro-6H-pyrazolo[3,4-c]pyridin-6-yl)-2-methyl-3,4-dihydroisoquinolin-1(2H)-one]
– | 100 to 300 | – | – | > 80 | 20 to 80 | – | CN1CCc2ccc(N3CCc4c(C(=O)NC5CCNCC5(F)F)nn(-c5cccc(Cl)c5)c4C3=O)cc2C1=O (stereo not drawn) [Example 1424, 1-(3-chlorophenyl)-N-(3,3-difluoropiperidin-4-yl)-6-(2-methyl-1-oxo-1,2,3,4-tetrahydroisoquinolin-7-yl)-7-oxo-4,5,6,7-tetrahydro-1H-pyrazolo[3,4-c]pyridine-3-carboxamide]
– | 300 to 1000 | – | – | > 80 | 20 to 80 | – | CCNC(=O)c1nn(-c2cccc(Cl)c2)c2c1CCN(c1cc(N3C(=O)CC4CC43)ccc1F)C2=O (stereo not drawn) [Example 1433, 1-(3-chlorophenyl)-N-ethyl-6-(2-fluoro-5-(3-oxo-2-azabicyclo[3.1.0]hexan-2-yl)phenyl)-7-oxo-4,5,6,7-tetrahydro-1H-pyrazolo[3,4-c]pyridine-3-carboxamide]
– | 10000 to 40000 | – | – | > 80 | > 80 | – | CCNC(=O)c1nn(-c2cccc(Cl)c2CO)c2c1CCN(c1ccc3c(c1)C(=O)N(C)CC3)C2=O [Example 2052, 1-(3-chloro-2-(hydroxymethyl)phenyl)-N-ethyl-6-(2-methyl-1-oxo-1,2,3,4-tetrahydroisoquinolin-7-yl)-7-oxo-4,5,6,7-tetrahydro-1H-pyrazolo[3,4-c]pyridine-3-carboxamide]
– | 300 to 1000 | – | – | 20 to 80 | 20 to 80 | – | CN1CCc2ccc(N3CCc4c(C(=O)N[C@@H]5COC[C@@H]5O)nn(-c5cccc(Cl)c5)c4C3=O)cc2C1=O [Example 1412, 1-(3-chlorophenyl)-N-((3R,4R)-4-hydroxytetrahydrofuran-3-yl)-6-(2-methyl-1-oxo-1,2,3,4-tetrahydroisoquinolin-7-yl)-7-oxo-4,5,6,7-tetrahydro-1H-pyrazolo[3,4-c]pyridine-3-carboxamide]
– | 100 to 300 | – | – | > 80 | > 80 | – | CN1CCc2ccc(N3CCc4c(C(=O)N[C@H]5COC[C@@H]5O)nn(-c5cccc(Cl)c5)c4C3=O)cc2C1=O [Example 1415, 1-(3-chlorophenyl)-N-((3S,4R)-4-hydroxytetrahydrofuran-3-yl)-6-(2-methyl-1-oxo-1,2,3,4-tetrahydroisoquinolin-7-yl)-7-oxo-4,5,6,7-tetrahydro-1H-pyrazolo[3,4-c]pyridine-3-carboxamide]
– | 10000 to 40000 | – | – | 20 to 80 | > 80 | – | CCNC(=O)c1nn(-c2cccc(Cl)c2)c2c1CCN(c1cccc(N3C(=O)C[C@H]4CCC[C@H]43)c1)C2=O [Example 1413, 1-(3-chlorophenyl)-N-ethyl-7-oxo-6-(3-((3aR,6aR)-2-oxohexahydrocyclopenta[b]pyrrol-1(2H)-yl)phenyl)-4,5,6,7-tetrahydro-1H-pyrazolo[3,4-c]pyridine-3-carboxamide]
10000 to 40000 | 100 to 300 | – | – | – | – | 10000 to 40000 | CN1CCc2ccc(N3CCc4c(C(=O)NCC5CC5)nn(-c5cccc(CN)c5)c4C3=O)cc2C1=O [Example 2019, 1-(3-(aminomethyl)phenyl)-N-(cyclopropylmethyl)-6-(2-methyl-1-oxo-1,2,3,4-tetrahydroisoquinolin-7-yl)-7-oxo-4,5,6,7-tetrahydro-1H-pyrazolo[3,4-c]pyridine-3-carboxamide]
– | 10 to 100 | – | – | 20 to 80 | 20 to 80 | – | CN1CCOc2ccc(N3CCc4c(C(=O)NC56CC(O)(C5)C6)nn(-c5cccc(Cl)c5F)c4C3=O)cc2C1=O [Example 2050, 1-(3-chloro-2-fluorophenyl)-N-(3-hydroxybicyclo[1.1.1]pentan-1-yl)-6-(4-methyl-5-oxo-2,3,4,5-tetrahydrobenzo[f][1,4]oxazepin-7-yl)-7-oxo-4,5,6,7-tetrahydro-1H-pyrazolo[3,4-c]pyridine-3-carboxamide]
– | 10000 to 40000 | – | – | > 80 | > 80 | – | CN1CCc2ccc(N3CCc4cnn(-c5cc(Cl)cc(CN)c5)c4C3=O)cc2C1=O [Example 2047, 7-(1-(3-(aminomethyl)-5-chlorophenyl)-7-oxo-1,4,5,7-tetrahydro-6H-pyrazolo[3,4-c]pyridin-6-yl)-2-methyl-3,4-dihydroisoquinolin-1(2H)-one]
